Results taken from BindingDB's records for doi:10.1016/j.bmc.2020.115622 (Kyowa Kirin, 2020).

Test: Inhibition of chemR23 expressed in human CAL1 cells assessed as reduction in chemerin-induced chemotaxis incubated for 4 hrs by cell counting based CellTiter-Glo assay

IC50	Compound
63 nM	Cc1ccc(-c2nc(=O)o[nH]2)c(-c2ccc([C@@H](C)N(CC3CC3)c3nc4c(C(=O)O)cccc4o3)cc2)c1
235 nM	CCCCN(c1nc2c(C(=O)O)cccc2o1)[C@H](C)c1ccc(-c2cc(Cl)ccc2-c2nc(=O)o[nH]2)cc1
